Measurements: patent US4077952A, “Somatostatin analogs” (American Home Products Corporation, priority 1977, dated 1978)
Positions of bridges follow the written chain, without caps; N, C: chain ends. Non-standard residues stand in square brackets, D forms with d. Residues, ends and D or L forms follow the SMILES beside them.

Key:
Assay type in all cases: in vivo
Conditions in all cases: albino male rats, blood 15 min after compound, 5 min after arginine
insulin (INS) = test: Suppression of insulin in arginine-stimulated, nembutal-anesthetized rats
Description: (§1) Albino male rats are arranged in two groups (nine rats/group) and injected i.p. with nembutal at 50 mg/kg. Fifteen minutes after the nembutal injection they are injected s.c. according to group with test compound, or physiological saline. Ten minutes later 0.5 ml. of arginine (300 mg/ml. pH 7.2) is injected into the heart. The rats are decapitated five minutes after receiving the arginine, and the blood is collected into Trasylol-EDTA. Appropriate aliquots are then assayed for growth hormone (GH), glucagon (GLUN), and insulin (INS). […] Comparisons between control and experimental values are statistically evaluated by the analysis of variants method and statistical significance (p) at 0.05 or lower is used as the index of activity.

growth hormone (GH) = test: Suppression of growth hormone in arginine-stimulated, nembutal-anesthetized rats
Description: as §1

glucagon (GLUN) = test: Suppression of glucagon in arginine-stimulated, nembutal-anesthetized rats
Description: as §1

## C[C@@H](O)[C@@H]1NC(=O)[C@H](Cc2ccccc2)NC(=O)[C@H]([C@@H](C)O)NC(=O)[C@H](CCCCN)NC(=O)[C@@H](Cc2c[nH]c3ccccc23)NC(=O)[C@H](Cc2ccccc2)NC(=O)[C@H](Cc2ccccc2)NC(=O)[C@H](Cc2c[nH]cn2)NC(=O)[C@H](CCCNC(=N)N)NC(=O)[C@@H](N)CSSC[C@@H](C(=O)O)NC(=O)[C@H](CO)NC1=O [Example 2, L-Cysteinyl-L-Arginyl-L-Histidyl-L-Phenylalanyl-L-Phenylalanyl-D-Tryptophyl-L-Lysyl-L-Threonyl-L-Phenylalanyl-L-Threonyl-L-Seryl-L-Cysteine Cyclic (1-12) Disulfide] (H-CRHFF[dW]KTFTSC-OH; disulfide 1-12)
Insulin (INS); Experiment 1, 100 μg/kg s.c., saline control 177 ± 19
  INS plasma level: 52 ± 16 μU/ml
Insulin (INS); Experiment 2, 10 μg/kg s.c., saline control 262 ± 26
  INS plasma level: 238 ± 72 μU/ml
Growth hormone (GH); Experiment 1, 100 μg/kg s.c., saline control 257 ± 49
  GH plasma level: 61 ng/mL
Growth hormone (GH); Experiment 2, 10 μg/kg s.c., saline control 131 ± 43
  GH plasma level: 71 ± 21 ng/mL
Glucagon (GLUN); Experiment 1, 100 μg/kg s.c., saline control 61 ± 9
  GLUN plasma level: 0 ± 0 pg/mL
Glucagon (GLUN); Experiment 2, 10 μg/kg s.c., saline control 42 ± 6
  GLUN plasma level: 4 ± 3 pg/mL
